Patent publication US10385069B2, “Imidazo[2,1-B]thiazole and 5,6-dihydroimidazo[2,1-B]thiazole derivatives useful as S100-inhibitors” (Active Biotech AB, priority 2015, dated 2019)

What follows are compounds tested against T1, interaction between biotinylated human S100A9 and human RAGE-Fc (Homo sapiens, UniProt P06702) (assay: AlphaScreen inhibition assay, biot-hS100A9:hRAGE-Fc). Settings: biot-hS100A9 pre-incubated with compound 1 h, assay buffer with CaCl2 and ZnCl2.
T1 construct: made in house; host or cells: E. coli
T1 sequence (P06702 1-114): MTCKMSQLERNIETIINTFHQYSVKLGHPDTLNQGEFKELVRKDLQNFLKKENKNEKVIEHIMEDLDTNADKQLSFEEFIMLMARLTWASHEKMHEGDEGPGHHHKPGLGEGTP
Format: binding
How it was run: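 Biotinylated human S100A9, preincubated with compound, binds human RAGE-Fc on protein A Acceptor beads in HBS-P with CaCl2 and ZnCl2; streptavidin Donor beads added, AlphaScreen signal read. Protein levels set by cross-titration; beads 20 μg/mL final. Percent inhibition versus DMSO control; IC50 from varied compound concentrations.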

IC50 | SMILES
1800 nM | O=C(O)c1nc2sc3c(Cl)c(F)ccc3n2c1C1CNC1 [Example 281, 3-(Azetidin-3-yl)-9-chloro-10-fluoro-7-thia-2,5-diazatricyclo[6.4.0.0^2,6]dodeca-1(8),3,5,9,11-pentaene-4-carboxylic acid]
940 nM | CN1CC(c2c(C(=O)O)nc3sc4c(Cl)c(F)ccc4n23)C1 [Example 290, 9-Chloro-10-fluoro-3-(1-methylazetidin-3-yl)-7-thia-2,5-diazatricyclo[6.4.0.0^2,6]dodeca-1(8),3,5,9,11-pentaene-4-carboxylic acid]
420 nM | O=C(NS(=O)(=O)C(F)(F)F)c1cn2c(n1)sc1c(Cl)c(Cl)ccc12 [Example 26, 9,10-Dichloro-N-trifluoromethanesulfonyl-7-thia-2,5-diazatricyclo[6.4.0.0^2,6]dodeca-1(8),3,5,9,11-pentaene-4-carboxamide]
1300 nM | O=C(O)c1cn2c(n1)sc1c(Cl)cccc12 [Example 5, 9-Chloro-7-thia-2,5-diazatricyclo[6.4.0.0^2,6]dodeca-1(8),3,5,9,11-pentaene-4-carboxylic acid]
1050 nM | O=C(O)c1nc2sc3c(Cl)c(F)ccc3n2c1NCCN1CCCC1 [Example 277, 9-Chloro-10-fluoro-3-{[2-(pyrrolidin-1-yl)ethyl]amino}-7-thia-2,5-diazatricyclo[6.4.0.0^2,6]dodeca-1(8),3,5,9,11-pentaene-4-carboxylic acid]
510 nM | CC1(C)Cc2c(sc3nc(C(=O)O)c(C4CC4)n23)C(C)(C)C1 [Example 258, 3-Cyclopropyl-9,9,11,11-tetramethyl-7-thia-2,5-diazatricyclo[6.4.0.0^2,6]dodeca-1(8),3,5-triene-4-carboxylic acid]
640 nM | O=C(O)c1cn2c(n1)sc1c(Cl)c(OC(F)(F)F)ccc12 [Example 214, 9-Chloro-10-(trifluoromethoxy)-7-thia-2,5-diazatricyclo[6.4.0.0^2,6]dodeca-1(8),3,5,9,11-pentaene-4-carboxylic acid]
950 nM | O=C(O)c1cn2c(n1)sc1c(Cl)c(N3CC(F)(F)C3)ccc12 [Example 266, 9-Chloro-10-(3,3-difluoroazetidin-1-yl)-7-thia-2,5-diazatricyclo[6.4.0.0^2,6]dodeca-1(8),3,5,9,11-pentaene-4-carboxylic acid]

The next lines start with the compound.

SMILES | IC50
O=C(O)c1cn2c(n1)sc1cc(Br)ccc12 [Example 13, 10-Bromo-7-thia-2,5-diazatricyclo[6.4.0.0^2,6]dodeca-1(8),3,5,9,11-pentaene-4-carboxylic acid] | 1300 nM
CC(C)(C)C1CCc2c(sc3nc(C(=O)O)c(CO)n23)C1 (centres unmarked) [Example 256, 10-tert-Butyl-3-(hydroxymethyl)-7-thia-2,5-diazatricyclo[6.4.0.0^2,6]dodeca-1(8),3,5-triene-4-carboxylic acid] | 500 nM
O=C(O)c1cn2c(n1)sc1c(OC(F)(F)F)cccc12 [Example 198, 9-(Trifluoromethoxy)-7-thia-2,5-diazatricyclo[6.4.0.0^2,6]dodeca-1(8),3,5,9,11-pentaene-4-carboxylic acid] | 1560 nM
CC1(C)CCc2sc3nc(C(=O)NS(C)(=O)=O)cn3c2C1 [Example 50, N-Methanesulfonyl-11,11-dimethyl-7-thia-2,5-diazatricyclo[6.4.0.0^2,6]dodeca-1(8),3,5-triene-4-carboxamide] | 1040 nM
CC1(C)Cc2c(sc3nc(C(=O)O)c(Br)n23)C(C)(C)C1 [Example 222, 3-Bromo-9,9,11,11-tetramethyl-7-thia-2,5-diazatricyclo[6.4.0.0^2,6]dodeca-1(8),3,5-triene-4-carboxylic acid] | 690 nM
COc1ccc(-c2c(C(=O)O)nc3sc4c(n23)CC(C)(C)CC4(C)C)cc1 [Example 254, 3-(4-Methoxyphenyl)-9,9,11,11-tetramethyl-7-thia-2,5-diazatricyclo[6.4.0.0^2,6]dodeca-1(8),3,5-triene-4-carboxylic acid] | 1150 nM
